Where a name gives a salt, the structure may show the parent alone.
Row | SMILES | crystallization at higher loadings (higher loadings) | tendency to salt out (at higher concentrations, compared to the dicamba DGA salt)
1 | COc1c(Cl)ccc(Cl)c1C(=O)O.NCCOCCO [dicamba DGA salt, diglycolamine (DGA) salt of dicamba] | crystallizes out | 
2 | COc1c(Cl)ccc(Cl)c1C(=O)O [dicamba EA salt, dicamba monoethanolamine salt] |  | less tendency to salt out

Source: patent US20230056057A1, “HERBICIDE CO[…] MONOETHANOLAMINE SALT AND A PPO-INHIBITOR” (MONSANTO TECHNOLOGY LLC, priority 2020, published 2023)
